*1 amine or outer side, *2 acyl side, *3 side chain or, on linkers, in order; H or OH if unused. Where a SMILES comes first, the peptide text is derived from it. Bridges are numbered along the chain shown (N, C = ends). [ ]: non-standard residue; d: D form. The star is where a group is joined. Ethylenediamine = C(CN[*:2])N[*:1]; X1 = O=C(CC1(S[*:2])CCCCC1)[*:1]; Orn = NCCC[C@H](N)C(=O)O; βAla = NCCC(=O)O; NHBu = CCCCN*
What was measured:
[1] = system: vasopressor response to arginine vasopressin; test: Antagonism to the vasopressor response (Anti-VP); assay type: in vivo; conditions: for Anti-VP Potency pA2 / Anti-VP pA2: estimated in vivo pA2; for Anti-VP pA2: Table 1
Protocol: Antagonism to the vasopressor response was estimated in accordance with Dyckes et al., J. Med. Chem., vol. 17 (1974) at 969. The values are expressed as pA2 values, defined as in Schild et al., Br. J. Pharmacol., vol. 2 (1947) at 189.
(§1) Antagonistic potencies were determined and expressed as "effective doses" and pA2 values. The "effective dose" is defined as the dose (in nanomoles per kilogram) that reduces the response seen from 2x units of agonist injected 20 min after the dose of antagonist to the response with 1x units of agonist. Estimated in vivo "pA2 " values represent the negative logarithms of the effective doses, divided by the estimated volume of distribution (67 ml/kg).

[2] = system: antidiuretic response to arginine vasopressin; test: Antagonism of the antidiuretic response to arginine vasopressin (Anti-ADH); assay type: in vivo, rats; conditions: for Anti-ADH Potency pA2: estimated in vivo pA2
Protocol: Activity as antidiuretic agonists was determined by intravenous injection of the compounds being evaluated in ethanol-anesthesized water-loaded rats in accordance with Sawyer, Endocrinology, vol. 63 (1958) at 694. Antagonism of the antidiuretic response to subsequent injections of arginine vasopressin was tested by the method of Sawyer et al., Science, vol. 212 (1981) at 49.
as §1

Structure (SMILES) | Anti-VP Potency pA2 ([1]; Table 2) | Anti-ADH Potency pA2 ([2]; Table 2) | also measured
CCOc1ccc(C[C@H]2NC(=O)CC3(CCCCC3)SSC[C@@H](C(=O)N3CCC[C@H]3C(=O)N[C@@H](CCCNC(=N)N)C(=O)NCCC(=O)NC)NC(=O)[C@H](CC(N)=O)NC(=O)[C@H](C(C)C)NC(=O)[C@H](Cc3ccccc3)NC2=O)cc1 [1-(beta-mercapto-beta,beta-cyclopentamethyleneproprionic acid), 2-D-(O-ethyl)tyrosine, 4-valine, 9-beta-alanine-N-methylamide]-arginine vasopressin] ([dY](Et)FVNCPR[βAla]-NHMe; linker N-5 via X1) | – | – | Anti-VP Potency pA2 ([1]; Table 4, ^+ = mixed): 7.77 ± 0.05; Anti-ADH Potency pA2 ([2]; Table 4): 7.61 ± 0.02
CC[C@H](C)[C@@H]1NC(=O)[C@H](Cc2ccccc2)NC(=O)[C@@H](Cc2ccccc2)NC(=O)CC2(CCCCC2)SSC[C@@H](C(=O)N2CCC[C@H]2C(=O)N[C@@H](CCCNC(=N)N)C(=O)N[C@@H](C)C(N)=O)NC(=O)[C@H](CC(N)=O)NC1=O [Ala(NH2), [1-(beta-mercapto-beta,beta-cyclopentamethylenepropionic acid), 2-D-phenylalanine, 4-isoleucine, 9-alaninamide]-arginine vasopressin] ([dF]FINCPRA-NH2; linker N-5 via X1) | 7.67 ± 0.04 | 8.38 ± 0.13 | –
CC[C@H](C)[C@@H]1NC(=O)[C@H](Cc2ccccc2)NC(=O)[C@@H](Cc2ccccc2)NC(=O)CC2(CCCCC2)SSC[C@@H](C(=O)N2CCC[C@H]2C(=O)N[C@@H](CCCNC(=N)N)C(=O)N[C@@H](CCCNC(=N)N)C(N)=O)NC(=O)[C@H](CC(N)=O)NC1=O [Arg(NH2), [1-(beta-mercapto-beta,beta-cyclopentamethylenepropionic acid), 2-D-phenylalanine, 4-isoleucine, 9-argininamide]-arginine vasopressin] ([dF]FINCPRR-NH2; linker N-5 via X1) | 8.11 ± 0.07 | 8.05 ± 0.11 | –
CC[C@H](C)[C@@H]1NC(=O)[C@H](Cc2ccccc2)NC(=O)[C@@H](Cc2ccccc2)NC(=O)CC2(CCCCC2)SSC[C@@H](C(=O)N2CCC[C@H]2C(=O)N[C@@H](CCCNC(=N)N)C(=O)N[C@H](C)C(N)=O)NC(=O)[C@H](CC(N)=O)NC1=O [D-Ala(NH2), [1-(beta-mercapto-beta,beta-cyclopentamethylenepropionic acid), 2-D-phenylalanine, 4-isoleucine, 9-D-alaninamide]-arginine vasopressin] ([dF]FINCPR[dA]-NH2; linker N-5 via X1) | 7.55 ± 0.05 | 7.38 ± 0.08 | –
COc1ccc(C[C@@H]2NC(=O)CC3(CCCCC3)SSC[C@@H](C(=O)N3CCC[C@H]3C(=O)N[C@@H](CCCNC(=N)N)C(=O)N[C@@H](C)C(N)=O)NC(=O)[C@H](CC(N)=O)NC(=O)[C@H](CCC(N)=O)NC(=O)[C@H](Cc3ccccc3)NC2=O)cc1 [Example 9(b), [1-(beta-mercapto-beta,beta-cyclopentamethylenepropionic acid), 2-(O-methyl)tyrosine, 9-alaninamide]-argine vasopressin] (Y(Me)FQNCPRA-NH2; linker N-5 via X1) | – | – | Anti-VP: pA2 ([1]; text after Table 2): 8.74±0.08; Anti-ADH: pA2 ([2]; text after Table 2): about 6.0
CC[C@H](C)[C@H](NC(=O)[C@H](CCCNC(=N)N)NC(=O)[C@@H]1CCCN1C(=O)[C@@H]1CSSC2(CCCCC2)CC(=O)N[C@H](Cc2ccccc2)C(=O)N[C@@H](Cc2ccccc2)C(=O)N[C@@H]([C@@H](C)CC)C(=O)N[C@@H](CC(N)=O)C(=O)N1)C(N)=O [Ile(NH2), [1-(beta-mercapto-beta,beta-cyclopentamethylenepropionic acid), 2-D-phenylalanine, 4-isoleucine, 9-isoleucinamide]-arginine vasopressin] ([dF]FINCPRI-NH2; linker N-5 via X1) | 7.04 ± 0.05 | 7.58 ± 0.11 | –
CC[C@H](C)[C@@H]1NC(=O)[C@H](Cc2ccccc2)NC(=O)[C@@H](Cc2ccccc2)NC(=O)CC2(CCCCC2)SSC[C@@H](C(=O)N2CCC[C@H]2C(=O)N[C@@H](CCCNC(=N)N)C(=O)N[C@@H](CCCN)C(N)=O)NC(=O)[C@H](CC(N)=O)NC1=O [Orn(NH2), [1-(beta-mercapto-beta,beta-cyclopentamethylenepropionic acid), 2-D-phenylalanine, 4-isoleucine, 9-ornithinamide]-arginine vasopressin] ([dF]FINCPR[Orn]-NH2; linker N-5 via X1) | 7.80 ± 0.05 | 8.18 ± 0.09 | –
CC[C@H](C)[C@@H]1NC(=O)[C@H](Cc2ccccc2)NC(=O)[C@@H](Cc2ccccc2)NC(=O)CC2(CCCCC2)SSC[C@@H](C(=O)N2CCC[C@H]2C(=O)N[C@@H](CCCNC(=N)N)C(=O)N[C@@H](Cc2ccccc2)C(N)=O)NC(=O)[C@H](CC(N)=O)NC1=O [Phe(NH2), [1-(beta-mercapto-beta,beta-cyclopentamethylenepropionic acid), 2-D-phenylalanine, 4-isoleucine, 9-phenylalaninamide]-arginine vasopressin] ([dF]FINCPRF-NH2; linker N-5 via X1) | 7.28 ± 0.11 | 7.69 ± 0.09 | –
CC[C@H](C)[C@@H]1NC(=O)[C@H](Cc2ccccc2)NC(=O)[C@@H](Cc2ccccc2)NC(=O)CC2(CCCCC2)SSC[C@@H](C(=O)N2CCC[C@H]2C(=O)N[C@@H](CCCNC(=N)N)C(=O)N2CCC[C@H]2C(N)=O)NC(=O)[C@H](CC(N)=O)NC1=O [Pro(NH2), [1-(beta-mercapto-beta,beta-cyclopentamethylenepropionic acid), 2-D-phenylalanine, 4-isoleucine, 9-prolinamide]-arginine vasopressin] ([dF]FINCPRP-NH2; linker N-5 via X1) | 7.12 ± 0.11 | 7.19 ± 0.04 | –
COc1ccc(C[C@@H]2NC(=O)CC3(CCCCC3)SSC[C@@H](C(=O)N3CCC[C@H]3C(=O)N[C@@H](CCCNC(=N)N)C(=O)NCC(=O)NCCN)NC(=O)[C@H](CC(N)=O)NC(=O)[C@H](CCC(N)=O)NC(=O)[C@H](Cc3ccccc3)NC2=O)cc1 [[1-(beta-mercapto-beta,beta-cyclopentamethylenepropionic acid), 2-(O-methyl)tyrosine, 9-glycine-N-(beta-amino)ethylamide]-arginine vasopressin] (Y(Me)FQNCPRG-Ethylenediamine; linker N-5 via X1) | – | – | Anti-VP Potency pA2 ([1]; Table 4, ^+ = mixed): 8.39 ± 0.05
CCCCNC(=O)[C@H](CCCNC(=N)N)NC(=O)[C@@H]1CCCN1C(=O)[C@@H]1CSSC2(CCCCC2)CC(=O)N[C@H](Cc2ccccc2)C(=O)N[C@@H](Cc2ccccc2)C(=O)N[C@@H]([C@@H](C)CC)C(=O)N[C@@H](CC(N)=O)C(=O)N1 [[1-(beta-mercapto-beta,beta-cyclopentamethylenepropionic acid), 2-D-phenylalanine, 4-isoleucine, 8-arginine-N-(n-butyl)amide, 9-desglycinamide)] vasopressin] ([dF]FINCPR-NHBu; linker N-5 via X1) | – | – | Anti-VP Potency pA2 ([1]; Table 4, ^+ = mixed): 7.13 ± 0.08
N=C(N)NCCC[C@H](NC(=O)[C@@H]1CCCN1C(=O)[C@@H]1CSSC2(CCCCC2)CC(=O)N[C@@H](Cc2ccc(O)cc2)C(=O)N[C@@H](Cc2ccccc2)C(=O)N[C@@H](CCC(N)=O)C(=O)N[C@@H](CC(N)=O)C(=O)N1)C(=O)NCC(N)=O [d(CH2)5 AVP, [1-(beta-mercapto-beta,beta-cyclopentamethylenepropionic acid)]-arginine vasopressin, reference compound] (YFQNCPRG-NH2; linker N-5 via X1) | – | – | Anti-VP pA2 [1]: 8.16 ± 0.09
CCCCNC(=O)CNC(=O)[C@H](CCCNC(=N)N)NC(=O)[C@@H]1CCCN1C(=O)[C@@H]1CSSC2(CCCCC2)CC(=O)N[C@@H](Cc2ccc(OC)cc2)C(=O)N[C@@H](Cc2ccccc2)C(=O)N[C@@H](CCC(N)=O)C(=O)N[C@@H](CC(N)=O)C(=O)N1 [d(CH2)5 [Tyr(Me)^2, Gly(NHBu-n)^9]AVP, [1-(beta-mercapto-beta,beta-cyclopentamethylenepropionic acid), 2-(O-methyl)tyrosine, 9-glycine-N-(n-butyl)amide]-arginine vasopressin] (Y(Me)FQNCPRG-NHBu; linker N-5 via X1) | – | – | Anti-VP Potency pA2 ([1]; Table 4, ^+ = mixed): 8.44 ± 0.07
N=C(N)NCCC[C@H](NC(=O)[C@@H]1CCCN1C(=O)[C@@H]1CSSC2(CCCCC2)CC(=O)N[C@@H](Cc2ccc(O)cc2)C(=O)N[C@@H](Cc2ccccc2)C(=O)N[C@@H](CCC(N)=O)C(=O)N[C@@H](CC(N)=O)C(=O)N1)C(=O)O [desGly(NH2)^9 d(CH2)5 AVP, [1-(beta-mercapto-beta,beta-cyclopentamethylenepropionic acid), 9-desglycinamide]-arginine vasopressin] (YFQNCPR-OH; linker N-5 via X1) | – | – | Anti-VP pA2 [1]: 7.88 ± 0.06
N=C(N)NCCC[C@H](NC(=O)[C@@H]1CCCN1C(=O)[C@@H]1CSSC2(CCCCC2)CC(=O)N[C@@H](Cc2ccc(O)cc2)C(=O)N[C@@H](Cc2ccccc2)C(=O)N[C@@H](CCC(N)=O)C(=O)N[C@@H](CC(N)=O)C(=O)N1)C(N)=O [desGly^9 d(CH2)5 AVP, [1-(beta-mercapto-beta,beta-cyclopentamethylenepropionic acid), 9-desglycine]-arginine vasopressin] (YFQNCPR-NH2; linker N-5 via X1) | – | – | Anti-VP pA2 [1]: 8.40 ± 0.06

From patent US4772586A, “Novel derivatives of arginine vasopressin antagonists” (Medical College of Ohio, priority 1986, dated 1988)
